From US20250059182A1, “SOS1 INHIBITORS” (Mirati Therapeutics, Inc., priority 2021, published 2025)
Structures can show the parent of a compound that is named as a salt. Where two headings read alike, the source gives them in different places.

How the values were obtained:
[1] = target: T1, recombinant human SOS1 polypeptide (amino acids 560-1049) (Homo sapiens, UniProt Q07889); experiment: HTRF displacement assay: inhibition of labeled tracer binding to SOS1
T1 construct: corresponding to amino acids 560-1049, expressed in E. Coli; made in house; host or cells: E. coli
T1 sequence (Q07889 560-1049): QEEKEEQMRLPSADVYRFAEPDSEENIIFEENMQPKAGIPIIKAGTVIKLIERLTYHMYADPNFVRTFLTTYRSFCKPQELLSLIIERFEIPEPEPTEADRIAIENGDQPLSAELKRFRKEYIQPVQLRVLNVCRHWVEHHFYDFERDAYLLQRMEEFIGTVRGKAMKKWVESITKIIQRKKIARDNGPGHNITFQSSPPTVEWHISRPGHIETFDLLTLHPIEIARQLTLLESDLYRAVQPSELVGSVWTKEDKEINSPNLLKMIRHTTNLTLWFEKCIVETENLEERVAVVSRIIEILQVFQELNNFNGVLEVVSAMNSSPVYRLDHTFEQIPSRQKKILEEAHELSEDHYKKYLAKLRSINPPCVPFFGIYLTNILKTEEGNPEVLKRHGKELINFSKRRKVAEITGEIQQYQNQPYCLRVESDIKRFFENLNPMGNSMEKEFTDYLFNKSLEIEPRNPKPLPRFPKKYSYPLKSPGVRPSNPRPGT

pERK in MKN1 cells = experiment: pERK inhibition, In-Cell Western (LI-COR Odyssey), MKN1 cells; format: cell-based; conditions: MKN1 or H358 cells (table does not say which), 0.5-1 hour incubation, read-out: IC50 (nM), pERK inhibition
Protocol: This Example illustrates that exemplary compounds of the present invention prevent KRas-mediated GTP nucleotide exchange mediated by SOS1 to inhibit KRas activity thereby inhibiting the generation of the downstream effector pERK.
MKN1 cells (15,000/w) or H358 (30,000/w) were seeded in a black clear flat bottom 96-well cell culture plate (Corning, #3904) and incubated at 37° C. overnight. Assay day 1, cells were dosed with compounds of Formula (I) with a 10 μm starting concentration and serially diluted 3× for a total of 9 concentrations. The cells were incubated for approximately 0.5-1 hour with the compounds solubilized in DMSO at 37° C. Cells were immediately fixed by adding 50 μL of 4% formaldehyde to all wells in a fume hood and the plates were incubated for 20 minutes at room temperature. The formaldehyde was discarded from the plates and 150 μL of ice-cold methanol was added to permeabilize the cells for 10 minutes at −20° C. The methanol was discarded from each of the plates and any liquid remaining in the plate by tapping the plate against paper towels. Cells were then blocked with 150 μL of Odyssey blocking buffer (LI-COR Biosciences #927-50010) using 0.05% Tween for 1 hour at room temperature on a shaker. The blocking buffer was discarded and 50 μL of primary antibodies pERK (cell signaling Technology #9101L; Rabbit, 1:500) and GapDH (Millipore #MAB34; Mouse, 1:5000) diluted in Odyssey blocking buffer was added. The plates were incubated overnight at 4° C. on a shaker.
On Assay day 2, the primary antibody solution was removed. Each plate was washed 3× times with 150 μL of 1×PBST (PBS+0.1% Tween 20) and incubated with 50 μL of secondary antibodies: Anti-Rabbit (LI-COR Biosciences #926-32211) and Anti-Mouse (LI-COR Biosciences #68070) at 1:800 dilution in Odyssey blocking buffer with Tween at room temperature on a shaker for 2 hours (protected from light). The secondary antibody solution as removed and each plate was washed with PBST 3× times. Any liquid remaining was discarded and the plate was imaged using the Licor Odyssey machine according to the manufacturer's instruction, using a set focus length at 3 mm and both 800 nm and 700 nm filters. The GAPDH normalized scan values for each well were divided by the average of vehicle wells to get the % of pERK inhibition. The IC50 values were then calculated with the Graph pad Prism software.

[2] = Table A, Morrison equation for competitive binding
[3] = Table A1, Morrison equation for competitive binding

| SMILES | Ki [1, 2] [nM] | IC50 (pERK in MKN1 cells; Homo sapiens, MKN-1, Table B) [nM] | Ki [1, 3] [nM] | also measured |
| --- | --- | --- | --- | --- |
| Cc1c(C#N)cccc1[C@@H](C)Nc1nnc(C)c2cnc(C3=CCN(C)CC3)cc12 [Example 3-2, (R)-2-methyl-3-(1-((4-methyl-7-(1-methyl-1,2,3,6-tetrahydropyridin-4-yl)pyrido[3,4-d]pyridazin-1-yl)amino)ethyl)benzonitrile] | 11.5 | 124 |  |  |
| COC1(c2cc3c(N[C@H](C)c4cccc(C#N)c4C)nnc(C)c3cc2F)CCN(C(C)=O)CC1 [Example P-159, (R)-3-(1-((7-(1-acetyl-4-methoxypiperidin-4-yl)-6-fluoro-4-methylphthalazin-1-yl)amino)ethyl)-2-methylbenzonitrile] |  |  | 2.2 | IC50 (pERK in MKN1 cells; Homo sapiens, MKN-1, Table B1): 100 nM |
| CCN1CC[C@H](N(C)c2cc3c(N[C@H](C)c4cccc(C#N)c4C)nnc(C)c3cn2)C1 [Example 1-89, 3-((R)-1-((7-(((S)-1-ethylpyrrolidin-3-yl)(methyl)amino)-4-methylpyrido[3,4-d]pyridazin-1-yl)amino)ethyl)-2-methylbenzonitrile] | 1.71 | 32.6 |  |  |
| Cc1c(C#N)cccc1[C@@H](C)Nc1nnc(C)c2cnc(N3CCN(C)[C@H](C)C3)cc12 [Example 1-12, 3-((R)-1-((7-((R)-3,4-dimethylpiperazin-1-yl)-4-methylpyrido[3,4-d]pyridazin-1-yl)amino)ethyl)-2-methylbenzonitrile] | 1.01 | 56.6 |  |  |
| Cc1c(C#N)cccc1[C@@H](C)Nc1nnc(C)c2cnc(N3C[C@H]4[C@@H]3CCN4C)cc12 (single isomer, unassigned) [Example 6-12] | 0.24 |  |  | IC50 (pERK in MKN1 cells; Table B): 13.7 nM |
| Cc1c(C#N)cccc1[C@@H](C)Nc1nnc(C)c2cnc(N3CC(C)(N4CCC4)C3)cc12 [Example 1-1, (R)-2-methyl-3-(1-((4-methyl-7-(3′-methyl-[1,3′-biazetidin]-1′-yl)pyrido[3,4-d]pyridazin-1-yl)amino)ethyl)benzonitrile] | 1.59 | 104 |  |  |
| Cc1nnc(N[C@H](C)c2cccc(C(C)(F)F)c2F)c2cc(-c3ccc(=O)n(C)c3)ncc12 [Example P-175, (R)-5-(1-((1-(3-(1,1-difluoroethyl)-2-fluorophenyl)ethyl)amino)-4-methylpyrido[3,4-d]pyridazin-7-yl)-1-methylpyridin-2(1H)-one] |  |  | 15.4 | IC50 (pERK in MKN1 cells; Homo sapiens, MKN-1, Table B1): 415 nM |
| Cc1nnc(N[C@H](C)c2cccc(C(F)(F)F)c2F)c2cc(N3CCN(C)CC3)c(F)cc12 [Example 4-7, (R)-6-fluoro-N-(1-(2-fluoro-3-(trifluoromethyl)phenyl)ethyl)-4-methyl-7-(4-methylpiperazin-1-yl)phthalazin-1-amine] | 1.06 | 110 |  |  |
| Cc1c(C#N)cccc1[C@@H](C)Nc1nnc(C)c2cnc(N3CCN(C(=O)[C@H]4CCN(C)C4)CC3)cc12 [Example 2-6, 2-methyl-3-((R)-1-((4-methyl-7-(4-((S)-1-methylpyrrolidine-3-carbonyl)piperazin-1-yl)pyrido[3,4-d]pyridazin-1-yl)amino)ethyl)benzonitrile] | 0.481 | 869 |  |  |
| Cc1c(C#N)cccc1[C@@H](C)Nc1nnc(C)c2cnc(N3CCN(C(=O)[C@@H]4CCCCN4C)CC3)cc12 [Example 2-7, 2-methyl-3-((R)-1-((4-methyl-7-(4-((S)-1-methylpiperidine-2-carbonyl)piperazin-1-yl)pyrido[3,4-d]pyridazin-1-yl)amino)ethyl)benzonitrile] | 0.545 | 139 |  |  |
| Cc1nnc(N[C@H](C)c2cccc(C(C)(F)F)c2F)c2cc(N(C)[C@@H]3CCN(C)C3)ncc12 [Example P-199, N1-((R)-1-(3-(1,1-difluoroethyl)-2-fluorophenyl)ethyl)-N7,4-dimethyl-N7-((R)-1-methylpyrrolidin-3-yl)pyrido[3,4-d]pyridazine-1,7-diamine] |  |  | 0.321 | IC50 (pERK in MKN1 cells; Homo sapiens, MKN-1, Table B1): 59.1 nM |
| Cc1nnc(N[C@H](C)c2cccc(C(F)F)c2F)c2cc(N3CCC34CN(C)C4)ncc12 [Example P-238, (R)-N-(1-(3-(difluoromethyl)-2-fluorophenyl)ethyl)-4-methyl-7-(6-methyl-1,6-diazaspiro[3.3]heptan-1-yl)pyrido[3,4-d]pyridazin-1-amine] |  |  | 0.4 | IC50 (pERK in MKN1 cells; Homo sapiens, MKN-1, Table B1): 17.7 nM |
| Cc1c(C#N)cccc1[C@@H](C)Nc1nnc(C)c2cc(F)c(N3CCN(C)C(C)(C)C3)cc12 [Example 4-18, (R)-3-(1-((6-fluoro-4-methyl-7-(3,3,4-trimethylpiperazin-1-yl)phthalazin-1-yl)amino)ethyl)-2-methylbenzonitrile] | 1.42 | 118 |  |  |
| Cc1c(C#N)cccc1[C@@H](C)Nc1nnc(CO)c2cnc(N3CCOCC3)cc12 [Example P-201, (R)-3-(1-((4-(hydroxymethyl)-7-morpholinopyrido[3,4-d]pyridazin-1-yl)amino)ethyl)-2-methylbenzonitrile formic acid salt] |  |  | 6.36 |  |
| Cc1c(C#N)cccc1[C@@H](C)Nc1nnc(C)c2cnc(OCCNC(=O)CCOC34CC5CC(CC(C5)C3)C4)cc12 [Example P-209, 3-(((3s,5s, 7s)-adamantan-1-yl)oxy)-N-(2-((1-(((R)-1-(3-cyano-2-methylphenyl)ethyl)amino)-4-methylpyrido[3,4-d]pyridazin-7-yl)oxy)ethyl)propanamide] |  |  | 542 |  |
| Cc1c(C#N)cccc1[C@@H](C)Nc1nnc(C)c2cnc(N3CCOCC3=O)cc12 [Example P-204, (R)-2-methyl-3-(1-((4-methyl-7-(3-oxomorpholino)pyrido[3,4-d]pyridazin-1-yl)amino)ethyl)benzonitrile] |  |  | 139 |  |
| Cc1nnc(N[C@H](C)c2cccc(C(C)(F)F)c2F)c2cc(N3CCN(C)CC3)c(C#N)cc12 [Example 6-21, (R)-1-((1-(3-(1,1-difluoroethyl)-2-fluorophenyl)ethyl)amino)-4-methyl-7-(4-methylpiperazin-1-yl)phthalazine-6-carbonitrile] | 1.05 |  |  |  |
| Cc1nnc(N[C@H](C)c2cccc(C(F)F)c2F)c2cc(N3CCN(C)CC3)c(C#N)cc12 [Example 6-22, (R)-1-((1-(3-(difluoromethyl)-2-fluorophenyl)ethyl)amino)-4-methyl-7-(4-methylpiperazin-1-yl)phthalazine-6-carbonitrile] | 1.49 |  |  |  |
| Cc1c(C#N)cccc1[C@@H](C)Nc1nnc(C)c2cnc(OCCOCCOc3cccc4c3C(=O)N(C3CCC(=O)NC3=O)C4=O)cc12 (stereo partly drawn) [Example P-208, 3-((1R)-1-((7-(2-(2-((2-(2,6-dioxopiperidin-3-yl)-1,3-dioxoisoindolin-4-yl)oxy)ethoxy)ethoxy)-4-methylpyrido[3,4-d]pyridazin-1-yl)amino)ethyl)-2-methylbenzonitrile] |  |  | 427 |  |
| Cc1c(C#N)cccc1[C@@H](C)Nc1nnc(C)c2cnc(N3CCOC(=O)C3)cc12 [Example P-203, (R)-2-methyl-3-(1-((4-methyl-7-(2-oxomorpholino)pyrido[3,4-d]pyridazin-1-yl)amino)ethyl)benzonitrile] |  |  | 26.1 |  |
| Cc1c(C#N)cccc1[C@@H](C)Nc1nnc(C=O)c2cnc(N3CCOCC3)cc12 [Example P-202, (R)-3-(1-((4-formyl-7-morpholinopyrido[3,4-d]pyridazin-1-yl)amino)ethyl)-2-methylbenzonitrile] |  |  | 49.7 |  |
| Cc1c(C#N)cccc1[C@@H](C)Nc1nnc(C)c2cc(Br)c(N3CCN(C)CC3)cc12 [Example 8-1, (R)-3-(1-((6-bromo-4-methyl-7-(4-methylpiperazin-1-yl)phthalazin-1-yl)amino)ethyl)-2-methylbenzonitrile] | 2.4 |  |  |  |
